Measurements: BindingDB's records for patent US20230303513 (Bristol-Myers Squibb, 2023)

Key:
fMet-Leu-Phe receptor = biological target: T1, fMet-Leu-Phe receptor (Homo sapiens, UniProt P21462); assay: cAMP Assay
T1 sequence (P21462 whole entry): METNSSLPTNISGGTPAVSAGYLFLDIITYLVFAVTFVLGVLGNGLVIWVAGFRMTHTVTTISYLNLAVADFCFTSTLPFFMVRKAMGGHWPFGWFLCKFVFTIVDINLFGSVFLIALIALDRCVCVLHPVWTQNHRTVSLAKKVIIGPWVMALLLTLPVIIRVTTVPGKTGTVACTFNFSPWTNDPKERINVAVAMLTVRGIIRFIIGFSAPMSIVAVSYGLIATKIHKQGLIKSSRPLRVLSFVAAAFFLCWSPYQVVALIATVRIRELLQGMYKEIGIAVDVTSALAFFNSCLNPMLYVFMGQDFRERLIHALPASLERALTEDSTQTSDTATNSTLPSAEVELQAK
Procedure: (§1) FPR2 and FPR1 Cyclic Adenosine Monophosphate (cAMP) Assays were used to measure the activity of the compounds in this patent. FPR2 and FPR1 Cyclic Adenosine Monophosphate (cAMP) Assays. A mixture of forskolin (5 μM final for FPR2 or 10 μM final for FPR1) and IBMX (200 μM final) were added to 384-well Proxiplates (Perkin-Elmer) pre-dotted with test compounds in DMSO (1% final) at final concentrations in the range of 0.020 nM to 100 μM. Chinese Hamster Ovary cells (CHO) overexpressing human FPR1 or human FPR2 receptors were cultured in F-12 (Ham's) medium supplemented with 10% qualified FBS, 250 μg/ml zeocin and 300 μg/ml hygromycin (Life Technologies). Reactions were initiated by adding 2,000 human FPR2 cells per well or 4,000 human FPR1 cells per well in Dulbecco's PBS (with calcium and magnesium) (Life Technologies) supplemented with 0.1% BSA (Perkin-Elmer). The reaction mixtures were incubated for 30 min at room temperature. The level of intracellular cAMP was determined using the HTRF HiRange cAMP assay reagent kit (Cisbio) according to manufacturer's instruction. Solutions of cryptate conjugated anti-cAMP and d2 flurorophore-labelled cAMP were made in a supplied lysis buffer separately. Upon completion of the reaction, the cells were lysed with equal volume of the d2-cAMP solution and anti-cAMP solution.

[1] = biological target: T2, N-formyl peptide receptor 2 (Homo sapiens, UniProt P25090); assay: cAMP Assay
T2 sequence (P25090 whole entry): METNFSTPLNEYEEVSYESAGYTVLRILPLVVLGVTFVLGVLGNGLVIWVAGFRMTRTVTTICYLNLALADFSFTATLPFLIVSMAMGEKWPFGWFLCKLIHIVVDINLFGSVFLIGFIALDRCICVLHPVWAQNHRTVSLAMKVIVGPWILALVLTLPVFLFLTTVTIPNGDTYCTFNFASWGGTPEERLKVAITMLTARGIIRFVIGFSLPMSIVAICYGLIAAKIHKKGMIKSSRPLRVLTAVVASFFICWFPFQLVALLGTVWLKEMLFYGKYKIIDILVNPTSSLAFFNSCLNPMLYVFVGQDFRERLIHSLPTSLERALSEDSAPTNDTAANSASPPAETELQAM
Procedure: as §1

Structure (SMILES): COCCn1cccc(N2C[C@@H](c3ccc(Cl)cc3)[C@H](NC(=O)NC3CCc4cc(OC)ccc4C3)C2=O)c1=O (some centres undefined) [US20230303513, Example 55]
- EC50 (fMet-Leu-Phe receptor): > 10000 nM
- EC50 [1]: 6.2 nM

Structure (SMILES): COCC(CO)n1cccc(N2C(=O)[C@@H](NC(=O)N[C@H]3CC[C@H](C(F)F)CC3)[C@H](c3c(F)cc(OC)cc3F)[C@@H]2C)c1=O (some centres undefined) [US20230303513, Example 63]
- EC50 (fMet-Leu-Phe receptor): 3600 nM
- EC50 [1]: 41 nM
